{
  "source": "patent US9308183B2",
  "about": "“Therapy for hyperexcitability disorders” (UCB PHARMA GMBH, priority 2006, dated 2016)",
  "key": {"[1]": {"system": "Sodium channels in mouse neuroblastoma N1E-115 cells", "assay": "Sodium current fast and slow inactivation in neuroblastoma cells (holding potential/prepulse protocols)", "assay_type": "cell-based", "settings": "for current when the holding potential was −60 mV: 10 ms test pulse to 0 mV; for fraction available after 500 ms hyperpolarizing pulse to −100 mV, compared to control values: holding potential −60 mV; for % of channels in the slow inactivated state: held at −80 mV, 10 s to −10 mV, 1.5 s recovery, VEH 27%"}, "[2]": {"target": "T1, rat type II sodium channel alpha subunit (Nav1.2) (Rattus norvegicus, UniProt P04775)", "T1 construct": "expressed in transfected cells; host or cells: Xenopus oocytes", "T1 sequence (P04775 whole entry)": "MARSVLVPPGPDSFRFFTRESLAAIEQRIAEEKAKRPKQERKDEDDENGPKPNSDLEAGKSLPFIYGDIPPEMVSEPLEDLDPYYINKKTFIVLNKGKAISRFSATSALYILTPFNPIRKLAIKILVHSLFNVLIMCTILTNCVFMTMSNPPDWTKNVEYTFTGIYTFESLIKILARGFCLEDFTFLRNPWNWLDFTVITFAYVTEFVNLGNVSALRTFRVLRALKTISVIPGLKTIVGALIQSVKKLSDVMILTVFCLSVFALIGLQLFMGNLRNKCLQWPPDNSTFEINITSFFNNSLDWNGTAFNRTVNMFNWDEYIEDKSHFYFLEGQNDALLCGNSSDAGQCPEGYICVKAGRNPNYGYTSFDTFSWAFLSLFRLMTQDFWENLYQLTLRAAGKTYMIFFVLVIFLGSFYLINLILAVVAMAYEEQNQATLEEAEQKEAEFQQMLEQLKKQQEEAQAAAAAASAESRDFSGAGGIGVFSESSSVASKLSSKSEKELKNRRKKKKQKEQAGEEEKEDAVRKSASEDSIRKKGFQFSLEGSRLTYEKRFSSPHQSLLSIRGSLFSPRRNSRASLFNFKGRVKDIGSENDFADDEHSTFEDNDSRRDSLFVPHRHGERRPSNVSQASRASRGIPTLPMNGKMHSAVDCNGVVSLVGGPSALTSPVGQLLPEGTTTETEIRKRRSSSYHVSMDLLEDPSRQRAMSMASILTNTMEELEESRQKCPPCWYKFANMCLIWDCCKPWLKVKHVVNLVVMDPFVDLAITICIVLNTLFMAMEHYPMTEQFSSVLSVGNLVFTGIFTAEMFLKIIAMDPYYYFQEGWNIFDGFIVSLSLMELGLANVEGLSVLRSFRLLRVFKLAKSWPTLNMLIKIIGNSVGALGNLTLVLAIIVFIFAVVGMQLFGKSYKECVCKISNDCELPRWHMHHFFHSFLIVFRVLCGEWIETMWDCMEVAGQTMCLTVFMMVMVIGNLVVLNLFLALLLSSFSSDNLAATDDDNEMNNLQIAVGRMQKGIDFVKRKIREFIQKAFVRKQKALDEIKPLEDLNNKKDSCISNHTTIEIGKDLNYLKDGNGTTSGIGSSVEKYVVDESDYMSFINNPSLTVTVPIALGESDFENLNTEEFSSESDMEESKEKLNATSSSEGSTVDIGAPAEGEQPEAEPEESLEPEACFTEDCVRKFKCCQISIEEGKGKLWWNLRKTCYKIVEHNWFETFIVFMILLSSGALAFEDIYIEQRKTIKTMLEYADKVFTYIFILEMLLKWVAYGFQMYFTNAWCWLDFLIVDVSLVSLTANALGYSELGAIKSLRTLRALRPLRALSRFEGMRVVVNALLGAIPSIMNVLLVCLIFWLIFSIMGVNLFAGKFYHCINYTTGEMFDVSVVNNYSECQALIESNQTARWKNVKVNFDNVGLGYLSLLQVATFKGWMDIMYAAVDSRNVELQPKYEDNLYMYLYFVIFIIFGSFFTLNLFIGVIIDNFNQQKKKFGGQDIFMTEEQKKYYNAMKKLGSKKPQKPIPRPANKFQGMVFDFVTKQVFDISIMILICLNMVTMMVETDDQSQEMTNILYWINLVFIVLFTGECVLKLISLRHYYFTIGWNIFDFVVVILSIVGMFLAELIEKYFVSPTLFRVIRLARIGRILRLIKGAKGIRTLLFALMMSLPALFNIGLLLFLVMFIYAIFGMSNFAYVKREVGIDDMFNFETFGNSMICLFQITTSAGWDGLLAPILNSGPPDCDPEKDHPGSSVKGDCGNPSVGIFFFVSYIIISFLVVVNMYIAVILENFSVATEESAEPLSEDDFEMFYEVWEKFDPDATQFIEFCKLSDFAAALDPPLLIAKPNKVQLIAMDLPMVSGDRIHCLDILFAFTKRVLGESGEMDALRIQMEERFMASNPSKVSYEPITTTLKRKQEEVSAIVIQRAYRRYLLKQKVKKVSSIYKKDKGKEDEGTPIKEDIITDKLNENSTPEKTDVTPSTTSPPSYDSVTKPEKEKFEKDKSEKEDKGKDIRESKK", "assay": "Sodium currents in Xenopus oocytes expressing sodium channel alpha subunits", "assay_type": "cell-based"}, "[3]": {"system": "TTX-resistant sodium currents in rat dorsal root ganglia", "assay": "Slow inactivation of TTX-resistant sodium current in dorsal root ganglia", "assay_type": "cell-based", "settings": "100 μM"}, "sodium channels": {"system": "sodium channels", "assay_type": "cell-based", "settings": "100 μM"}, "[4]": {"system": "sodium channels in rat cortical neurons, NIE-115 cells and Xenopus oocytes", "assay": "Effects upon firing, synaptic transmission and sodium channels in rat cortical neurons, NIE-115 cells and Xenopus oocytes", "assay_type": "cell-based"}, "129SVEV mice": {"system": "129SVEV mice", "assay": "Stress-induced hyperthermia (SIH) test, animal model for stress-induced anxiety", "assay_type": "in vivo, mouse", "procedure": "The room temperature was maintained between 20 and 23° C. with a relative humidity maintained between 30% and 70%.\nOn the day prior to testing, the mice were brought to the experimental room one hour before scheduled lights out and singly housed overnight with food and water ad libitum. […] The probe remained inside the animal for approximately 5 seconds or until body temperature reached stability. This temperature was recorded as the baseline rectal temperature (T1). […] Before each insertion, the rectal probe was cleaned with an alcohol pad and lubricated with sterile K-Y jelly."}, "[5]": {"system": "rat hippocampal slice cultures", "assay_type": "cell-based"}, "[6]": {"system": "rat hippocampal slice cultures", "assay_type": "cell-based", "settings": "for reduction of overall damage: LDH release 24 h after Glut"}, "[7]": {"system": "voltage-gated Na+ channels", "settings": "cited from earlier work"}, "[8]": {"settings": "10 μM, 15 mM glutamate for 24 h"}},
  "note": "Like-named read-outs stand apart in the source and are kept apart here.",
  "data": [
    {"smiles": "NC(=O)N1c2ccccc2C=Cc2ccccc21", "note": "[carbamazepine, reference compound]", "values": [
      {"measurement": "current when the holding potential was −60 mV", "setting": "[1]; 100 μM", "value": "reduction in current"},
      {"measurement": "fraction available after 500 ms hyperpolarizing pulse to −100 mV, compared to control values", "setting": "[1]; 100 μM", "value": "0.94±0.19"}
    ]},
    {"smiles": "COC[C@@H](NC(C)=O)C(=O)NCc1ccccc1", "note": "[lacosamide, (R)-2-acetamido-N-benzyl-3-methoxy-propionamide]", "values": [
      {"measurement": "V50 for slow inactivation", "setting": "[1]; 32 μM and 100 μM", "value": "shift of the V50 for slow inactivation to more negative potentials"},
      {"measurement": "% of channels in the slow inactivated state", "setting": "[1]; 32 μM", "value": 37, "unit": "%"},
      {"measurement": "conditioning potential of first significant change in channel availability", "setting": "[1]; 100 μM", "value": "−80", "unit": "mV"},
      {"measurement": "reduction of sodium channel availability that resulted from entry into the slow inactivated state", "setting": "[1]; 100 μM", "value": "more than doubled"},
      {"measurement": "current when the holding potential was −60 mV", "setting": "[1]; 100 μM", "value": "reduction in current"},
      {"measurement": "inhibition after hyperpolarizing prepulse (removal of fast inactivation)", "setting": "[1]; 100 μM, 500 ms pulse to −100 mV", "value": "not altered"},
      {"measurement": "% of channels in the slow inactivated state", "setting": "[1]; 100 μM", "value": 50, "unit": "%"},
      {"measurement": "% of channels in the slow inactivated state", "setting": "[1]; 320 μM", "value": 62, "unit": "%"},
      {"measurement": "slow inactivation voltage curves", "setting": "[1]; concentration dependent", "value": "shifted the slow inactivation voltage curves to more hyperpolarized membrane potentials"},
      {"measurement": "maximal fraction of current made unavailable by depolarisation", "setting": "[1]; conditioning potential −10 mV, CONTROL 0.70±0.02", "value": "0.41±0.04"},
      {"measurement": "time constant for entry into slow inactivation", "setting": "[1]; in the presence of the drug, physiological 12.0 s", "value": 4.8, "unit": "s"},
      {"measurement": "slow inactivation voltage curve", "setting": "[2]; 100 μM, Xenopus oocytes, Nav1.2", "value": "pronounced shift"},
      {"measurement": "inhibition of sodium currents", "setting": "[2]; oocyte expression system", "value": "rapid and profoundly voltage dependent inhibition"},
      {"measurement": "slow inactivation of TTX-resistant sodium currents", "setting": "[3]", "value": "markedly increased"},
      {"measurement": "fraction of sodium channels slowly inactivated by a 10 s depolarizing pulse", "setting": "sodium channels", "value": "significantly increased"},
      {"measurement": "half-life for channel recovery", "setting": "sodium channels; after 10 s depolarizing pulse", "value": "not significantly changed"},
      {"measurement": "frequency of miniature excitatory post-synaptic potentials", "setting": "[4]", "value": "not reduced"},
      {"measurement": "prolonged sustained repetitive firing on action potentials", "setting": "[4]", "value": "inhibits"},
      {"measurement": "rate of sodium channel fast inactivation", "setting": "[4]", "value": "does not change"},
      {"measurement": "resting conductances", "setting": "[4]", "value": "no effect"},
      {"measurement": "slow prolonged bursting in cortical neurons", "setting": "[4]", "value": "inhibits"},
      {"measurement": "steady state fast inactivation voltage curves", "setting": "[4]", "value": "does not shift"},
      {"measurement": "sustained repetitive firing", "setting": "[4]", "value": "did not block"},
      {"measurement": "synaptic transmission under normal physiologic conditions", "setting": "[4]", "value": "did not modulate"},
      {"measurement": "action potential firing evoked by brief depolarising steps or ramps", "setting": "[4]; initial studies", "value": "very limited effect"},
      {"measurement": "rate of synaptic traffic in cultured neurons", "setting": "[4]; stereoselective and concentration dependent", "value": "attenuates"},
      {"measurement": "effect on SIH compared to saline", "setting": "129SVEV mice; 3 mg/kg i.p. 60 min prior to testing", "value": "significantly attenuated"},
      {"measurement": "effect on SIH compared to saline", "setting": "129SVEV mice; 10 mg/kg i.p. 60 min prior to testing", "value": "significantly attenuated"},
      {"measurement": "effect on SIH compared to saline", "setting": "129SVEV mice; 30 mg/kg i.p. 60 min prior to testing", "value": "No significant effects"},
      {"measurement": "reduction of Glut-induced necrosis (neuronal damage)", "setting": "[5]", "value": "40-50%"},
      {"measurement": "reduction of overall damage", "setting": "[6]; 1, 10 and 100 μM", "value": "30-40%"},
      {"measurement": "fast inactivation gating of voltage-gated Na+ channels", "setting": "[7]", "value": "does not exert its effects on neuronal excitability by affecting fast inactivation gating"}
    ]},
    {"smiles": "CC(C)C[C@H](CN)CC(=O)O", "note": "[pregabalin, reference compound]", "values": [
      {"measurement": "effect on SIH compared to saline", "setting": "129SVEV mice; mouse, in vivo, ip", "value": "No significant effects"}
    ]},
    {"smiles": "NC1=N[C@H](O)[C@H]2[C@H]3O[C@]4(O)O[C@@H]([C@@H](O)[C@@]2(N1)[C@@H]4O)[C@]3(O)CO", "note": "[Tetrodotoxin]", "values": [
      {"measurement": "neuronal damage (PI uptake, CA1-CA3) 24 h after Glut", "setting": "[5]", "value": "neuroprotective effect"},
      {"measurement": "reduction of neuronal damage", "setting": "[5]", "value": "~50", "unit": "%"},
      {"measurement": "overall damage (LDH release) 24 h after Glut", "setting": "[6]", "value": "protective effect"},
      {"measurement": "reduction of general damage", "setting": "[6]", "value": "20-40%"}
    ]},
    {"smiles": "C[C@]12N[C@H](Cc3ccccc31)c1ccccc12", "note": "[MK-801]", "values": [
      {"measurement": "neuronal damage (PI uptake, CA1-CA3) 24 h after Glut", "setting": "[5]; [8]", "value": "significant protection"},
      {"measurement": "reduction of neuronal damage", "setting": "[5]; 10 μM, PI uptake 24 h after Glut", "value": "~80", "unit": "%"},
      {"measurement": "overall damage (LDH release) 24 h after Glut", "setting": "[6]; [8]", "value": "significant protection"},
      {"measurement": "reduction of overall damage", "setting": "[6]; 10 μM", "value": "~50", "unit": "%"}
    ]},
    {"smiles": "O=C1NC(=O)C(c2ccccc2)(c2ccccc2)N1", "note": "[phenytoin, reference compound]", "values": [
      {"measurement": "current when the holding potential was −60 mV", "setting": "[1]; 100 μM", "value": "reduction in current"},
      {"measurement": "fraction available after 500 ms hyperpolarizing pulse to −100 mV, compared to control values", "setting": "[1]; 100 μM", "value": "0.99±0.05"}
    ]},
    {"smiles": "Nc1nnc(-c2cccc(Cl)c2Cl)c(N)n1", "note": "[lamotrigine, reference compound]", "values": [
      {"measurement": "current when the holding potential was −60 mV", "setting": "[1]; 100 μM", "value": "reduction in current"},
      {"measurement": "fraction available after 500 ms hyperpolarizing pulse to −100 mV, compared to control values", "setting": "[1]; 100 μM", "value": "0.88±0.06"}
    ]}
  ]
}
